These results are taken from PubChem BioAssay (NCI).

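Assay format: 96-well plates, 48-hour exposure. Here, GI50 denotes the concentration required for 50% inhibition of growth. TGI is the concentration that stops growth completely.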

What all share (test): inhibition of tumour cell growth, NCI panel, 48 h
The subject of test [1] is LXFL 529 NSCLC.
Test [2] relates to DLD-1 colon.
The subject of test [3] is SNB-78 CNS.
For test [4], the system named is DMS 114 small cell lung.
The test system of test [5] is M19-MEL melanoma.
The test system of test [6] is XF 498 CNS.
The test system of test [7] is HOP-18 NSCLC.
For test [8], the system named is RXF-631 renal.
Test [9] relates to MDA-N.

Consider `Cc1nc2c(o1)C(=Nc1ccccc1)c1nc(C)oc1C2=Nc1ccccc1`, for which the TGI in test [1] is 45.1 µM; in [2], 67.9 µM; in [3], greater than 100 µM; in test [4] it was 60.4 µM; in test [5], 47.6 µM; in test [6], 33.2 µM. The TGI in [7] came to 52.9 µM.

On to `Clc1cccc(-c2nnc(-c3nn(-c4ccccc4)c4nc5ccccc5nc34)o2)c1`, for which the TGI in test [1], in test [2], in test [3], in test [4], in [5] and in [6] was greater than 100 µM each time. Besides, the TGI in test [7] was greater than 100 µM.

On to `COC1OC2COC(C)(C)OC2C(OC(C)=O)C1NC(=O)N(CCCl)N=O` (centres undefined), for which the TGI in [1], in test [2], in [3], in test [4], in [5] and in [6] was greater than 100 µM throughout. The compound further had a TGI in test [7] greater than 100 µM.

For the compound `COc1cc(/C=N/N=C(\N)NO)c(Cl)cc1O`, the TGI in [1], in test [3], in [4] and in test [5] was greater than 100 µM each time.

Consider `Cc1cc(C)c(-c2noc(-c3ccc(Cl)cc3)c2C2=NCCCN2)c(C)c1`, for which the TGI in [1] was greater than 100 µM; in [2], greater than 100 µM; in test [3] it was greater than 100 µM; in test [5] it was greater than 100 µM; in [6], 54.8 µM; in [7], greater than 100 µM. This compound also had a TGI in [8] greater than 100 µM.

For the compound `O=C(CCN1CCCCC1)N1CCc2c([nH]c3ccccc23)C1c1cccnc1` (centres undefined), the TGI in [1] is 38.1 µM; in test [2], greater than 100 µM; in [3] it was greater than 100 µM; in [4] it was greater than 69.7 µM; in test [5], 46.1 µM; in test [6], 57.3 µM. The values for the TGI in [9], in [7] and in test [8] were 75 µM, greater than 100 µM and greater than 80.7 µM, respectively.

Consider `Nc1ccccc1C(=O)CCC1C(=O)NC(=S)NC1=O`, for which the TGI in [1], in [2], in [4], in test [5], in [9] and in test [7] was greater than 100 µM each time. Moreover, the TGI in test [8] is greater than 100 µM.

With `O=C(Nc1ccc(Cl)cc1Cl)OC(Cn1cncn1)c1ccc(Cl)cc1Cl` (centres undefined), the TGI in test [1] amounted to 30.6 µM; in test [2], 35 µM; in test [3], 38.6 µM; in test [4], 29.8 µM; in test [5], 30.8 µM; in [6], 27.9 µM. In addition, the TGI in test [7] was 41.5 µM; in test [8], 33.2 µM.

With `COc1ccc(S(=O)(=O)N(CC(=O)O)c2ccccc2)cc1`, the TGI in test [1], in test [2], in [5] and in test [7] was greater than 100 µM throughout.

`C/C=C1\CN2CCc3c([nH]c4ccccc34)C2CC1CCO` (centres undefined): the TGI in test [1], in test [2], in test [3], in [4], in test [5] and in [6] was greater than 100 µM each time. Also, the TGI in test [7] and in [8] was greater than 100 µM in each case.

Turning to `N#CC(C(=O)/C(=N\NC(N)=O)C(C#N)c1ccccc1)c1ccccc1` (centres undefined), the TGI in test [1], in test [2], in test [3] and in test [8] was greater than 100 µM each time.

For the compound `COc1c(-c2ccccc2)nc2ccc(Oc3ccccc3)nn12`, the TGI in test [1] was greater than 100 µM; in test [2], greater than 100 µM; in test [3], greater than 100 µM; in test [4], greater than 87.7 µM; in [5], greater than 100 µM; in test [6] it was 66.9 µM. This compound returned a TGI in [7] greater than 87.1 µM.

As to `O=C1C2C3CC(C4C5C=CC(C5)C34)C2C2C3CC(C12)C1C2C=CC(C2)C31` (centres undefined), the TGI in [1], in [2], in test [3], in test [4], in test [5] and in test [6] was greater than 100 µM in each case. The TGI in test [7] and in [8] was greater than 100 µM throughout.

As for `Cn1c2c(c3ccccc31)CCN1C(=O)CCC21` (centres undefined), in [9], the TGI was greater than 10 µM.

Take `CN(/N=C/c1ccnc2ccccc12)c1c([N+](=O)[O-])cc([N+](=O)[O-])cc1[N+](=O)[O-]`: the TGI in test [1], in [2], in [3], in [4], in [5] and in [6] was greater than 100 µM in each case. The TGI in test [7] was greater than 100 µM.

For the compound `CCOc1ccccc1N=Nc1c(-c2ccccc2)nn(C(=O)CC(=O)Nc2cccc(C)c2)c1-c1ccccc1`, the TGI in [1], in test [2], in test [3], in test [4], in test [5] and in test [6] was greater than 100 µM throughout. The TGI in [7] and in test [8] was greater than 100 µM in each case.

As to `CCCCCCCCCC[C@H](O)[C@H](O)CC[C@@H](O)[C@H]1CC[C@@H]([C@H]2CC[C@H](CCCCCCC[C@@H](O)CC3=C[C@H](C)OC3=O)O2)O1`, in test [9], the GI50 is 17.5 µM and the TGI is 53 µM.

Take `N/N=C(/Cc1nc2ccc(C(=O)c3ccccc3)cc2[nH]c1=O)C(=O)Nc1ccc([N+](=O)[O-])cc1[N+](=O)[O-]`: the GI50 in test [1], in test [3], in [4] and in test [5] was greater than 100 µM each time. For the same compound, the TGI in [1], in [3], in [4], in [5], in [6] and in [7] was greater than 100 µM each time.

Consider `CN(/N=C\c1ccnc2ccccc12)c1ccc([N+](=O)[O-])cc1`, for which the TGI in test [1], in test [3], in [5], in test [6] and in [8] was greater than 100 µM in each case.

Turning to `CNS(=O)(=O)NNS(=O)(=O)c1ccc(OC)cc1`, the TGI in [1], in test [2], in [4], in test [5], in test [6] and in [8] was greater than 100 µM in each case.

As to `CCNC(=O)OCc1c(COC(=O)NCC)c(-c2ccc(Cl)c(Cl)c2)n2c1CCC2`, the TGI in test [1] is 34.8 µM; in [2], 72.3 µM; in test [4] it was 25.4 µM; in test [5], 58.1 µM; in [6] it was 36.3 µM.

`O=C1C=CC(=O)c2c(O)c3c(c(O)c21)C[C@H](O)[C@H](O)[C@@H]3O` returned a TGI in [9] of 2.95 µM.

For the compound `COC(=O)[C@@H]1Cc2c([nH]c3ccccc23)[C@H](c2ccccc2)N1`, the TGI in [1] was greater than 100 µM; in [2] it was greater than 100 µM; in [4] it was 84 µM; in [5], greater than 100 µM; in test [7], greater than 100 µM.

As for `O=C(Nc1ccc(Cl)c(Cl)c1)C(=O)C(C(=O)c1ccccc1-c1ccccc1)C1OC(=O)c2ccccc21` (centres undefined), the TGI is 21 µM in [1]; 30.1 µM in test [2]; greater than 100 µM in test [3]; 27 µM in test [4]; 33.9 µM in test [5]; 26.5 µM in test [6]. The compound also gave a TGI in test [8] of 37.7 µM.

Turning to `O=c1c(Cl)c(Cl)cnn1CCCl`, the TGI in [1] came out at 3.1 µM; in test [2], 3.29 µM; in test [3], 30.7 µM; in test [4] it was 18.9 µM; in test [5], 8.75 µM; in test [6], 11.7 µM.

In test [9], `CCCCCC/C=C\CCCCCCCCCC1=C(CN2CCN(C)CC2)C(=O)C=C(OC)C1=O` returned a TGI of 21.1 µM.

In [9], `O=[N+]([O-])c1cc([N+](=O)[O-])c(Nn2c3ccccc3c3ccccc32)c([N+](=O)[O-])c1` returned a TGI of 12.2 µM.

As to `COc1ccc(OC)c(/C=N/N=C(\N)NO)c1`, the TGI is greater than 100 µM in test [1]; greater than 100 µM in test [2]; greater than 100 µM in test [3]; greater than 100 µM in test [4]; greater than 100 µM in [5]; 58.3 µM in [6]. In test [8], the TGI was greater than 100 µM.

For the compound `COC1(OC)C2(Cl)C(Cl)=C(Cl)C1(Cl)C1C2C2CC1(C(=O)O)c1ccccc12` (centres undefined), the TGI in test [1] turned out to be 28 µM; in test [2], 35.6 µM; in test [4], 39.9 µM; in test [5], 38.3 µM; in test [7], 93.9 µM; in [8], 42.8 µM.

`O=C(/C=C\c1cccc2ccccc12)c1ccc(Cl)cc1Cl`: the TGI in test [1] was determined as 32.8 µM; in [2], 40.8 µM; in test [3], 45.5 µM; in test [4], 30.8 µM; in test [5] it was 35.9 µM; in test [7], 48.1 µM. This compound gave a TGI in test [8] of 74.3 µM.

Regarding `CCOC(=O)C(C#N)C1=CC(=O)C(=O)c2ccc(O)cc21` (centres undefined), the TGI in test [9] turned out to be 32.7 µM.

Take `CC(=O)[CH-]C(=O)c1ccccc1.CC(=O)[CH-]C(=O)c1ccccc1.CC(=O)[CH-]C(=O)c1ccccc1.[Nd+3].[OH3+]`: the GI50 in [1] is 71.1 µM; in test [2] it was 25 µM; in test [5] it was 31.4 µM. The TGI in test [1], in [2] and in [5] was greater than 100 µM throughout.

`CC(=O)[C@H]1CCC2[C@@H]3CC=C4C[C@@H]([O-])CC[C@]4(C)C3CC[C@@]21C.CC(=O)[C@H]1CCC2[C@@H]3CC=C4C[C@@H]([O-])CC[C@]4(C)C3CC[C@@]21C.CC(=O)[CH-]C(=O)c1ccccc1.CC(=O)[CH-]C(=O)c1ccccc1.Cl.[Ti+4]` (some centres undefined): the GI50 in [1] is 32.1 µM; in [2] it was 27.4 µM; in test [5] it was 43.5 µM; in test [7], 42.9 µM. Further, the TGI in test [1], in test [2], in test [5] and in test [7] was greater than 100 µM each time.

As to `COC(=O)C1C(=O)O[C@@H](c2cc(OC)c(OC)cc2OC)C1C(=O)OC` (mixture of isomers), the TGI in [1], in test [2], in [3], in [4], in [5] and in test [6] was greater than 100 µM each time. This compound also showed a TGI in test [8] greater than 100 µM.

`CC1=CC(C)(C)NN1C1=NS(=O)(=O)c2ccccc2N1C` came in with a TGI in [9] greater than 100 µM.

On to `O=C(/C=C/c1cccc([N+](=O)[O-])c1)c1ccc([N+](=O)[O-])cc1`, for which the TGI in [1], in test [2], in test [3], in test [5], in test [6] and in test [8] was greater than 100 µM each time.

As for `O=C1O/C(=C/c2ccccc2)C(c2ccccc2)=C1O`, the TGI in test [9] is greater than 100 µM.

Take `Clc1cccc(C2N3CCCCC3[C@@H]3c4[nH]c5ccccc5c4CCN23)c1` (some centres undefined): the TGI in [2] was greater than 100 µM; in [4], 55.6 µM; in [5] it was 48 µM; in test [6], 40 µM; in test [7], greater than 100 µM.

`C/C=C1/CC(C)C(C)(O)C(=O)OCC2C(O)CN3CCC(OC1=O)C23` (centres undefined) registered a TGI in [9] greater than 100 µM.

Consider `NC1=NN(c2ccccc2)C(=O)C1C(=O)C(=O)Nc1ccc(Cl)c(Cl)c1` (centres undefined), for which the TGI in [2], in [3], in test [4], in test [5], in [7] and in [8] was greater than 100 µM in each case.
